Measurements reported in patent US20050026833A1, “PSP-94: use for treatment of hypercalcemia and bone metastasis” (priority 2001, published 2005).

System: Mat Ly Lu-PTHrP skeletal metastasis
Assay: Bone histomorphometry of vertebrae (tumor volume to bone volume)
Type: in vivo, male Copenhagen rats
Description: Alternatively, cell pellets (10×10^3 cells) were resuspended in 100ul saline and injected using 1 ml syringes into the left ventricle of rats anaesthetised with ketamine/xylazine cocktail. […] The time after tumor cell inoculation which was required to develop hind limb paralysis (an index of spinal cord compression due to lumbar vertebrae metastasis) was determined and percentage of starting number of animals developing hind-limb paralysis was plotted. […]
Computer-Assisted Image Analysis. Computer-assisted image analysis was carried out to quantify PTHrP immunostaining and determination of % TV/BV in the vertebral sections. […] The threshold was set by determining the positive staining of control sections and was used to automatically analyze all recorded images of all samples that were stained in the same session under identical conditions. The area of stained regions was calculated automatically by the software in each microscopic field. Pixel counts of the immunoreaction product were calculated automatically and were given as total density of the integrated immunostaining over a given area. […]

E W Q T D N C E T C T C Y E T (EWQTDNCETCTCYET; PCK3145 (polypeptide 31-45))
ratio of tumor volume to bone volume (TV/BV) (100.0 ug/kg PCK3145, day 10 post inoculation, vs vehicle): significant decrease | trabecular and cortical bone destruction with compression of the spinal cord (100.0 ug/kg/day PCK3145, day 10, vs vehicle): significantly less
